In patent US8940742B2, “Heterocyclic compounds and uses thereof” (Infinity Pharmaceuticals, Inc., priority 2012, dated 2015):

Key:
[1] = target: RAJI p110 δ (Homo sapiens, UniProt O00329); assay: RAJI p110 δ cellular assay (phospho-AKT);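 also: potency based on lowered phosphorylated AKT in RAJI cells, as a readout of PI3K-δ dependent B-cell receptor signaling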
Description: (a) PI3K-δ Selective Assay
Reduction of phospho-AKT is indicative of compounds that may inhibit B-cell proliferation and function in certain diseases.

[2] = target: T1, PI3K α (Homo sapiens, UniProt P42336); assay: PI3-Kinase Promega ADP-Glo Max assay; assay type: biochemical; conditions: 20 nM kinase, 3 mM ATP, 500 uM diC8-PtdInsP
T1 construct: purchased Millipore
In short: (§1)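 Human class I PI3K (20 nM α or δ, 40 nM β) pre-incubated 15 min with compound in HEPES pH 7.4 buffer with MgCl2, then reacted 2 h at room temperature with 3 mM ATP and 500 uM diC8-PtdInsP. ADP measured by ADP-Glo Max luminescence; % inhibition fitted to 4-parameter logistic for IC50.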

[3] = target: T2, PI3K δ (Homo sapiens, UniProt O00329); assay: PI3-Kinase Promega ADP-Glo Max assay; assay type: biochemical; conditions: 20 nM kinase, 3 mM ATP, 500 uM diC8-PtdInsP
T2 construct: purchased Millipore
In short: as §1

[4] = target: T3, PI3K β (Homo sapiens, UniProt P42338); assay: PI3-Kinase Promega ADP-Glo Max assay; assay type: biochemical; conditions: 40 nM kinase, 3 mM ATP, 500 uM diC8-PtdInsP
T3 construct: purchased Millipore
In short: as §1

[5] = target: T4, Raw264.7 p110 γ (Mus musculus, UniProt Q9JHG7); assay: Raw264.7 p110 γ cellular assay (phospho-AKT); assay type: cell-based; conditions: serum-starved RAW264.7 cells stimulated with C5a
T4 construct: reduction of phospho-AKT in stimulated RAW 264.7 cells; endogenous in cells; host or cells: RAW264.7 macrophages
Description: (b) PI3K-γ Selective Assay
Briefly, serum-starved PAW264.7 cells are stimulated with a known GPCR agonist C5a. […] Cells can be treated with test compounds prior to, simultaneously with, or subsequent to the stimulation by C5a. RAW 264.7 cells respond to the complement component fragment C5a through activation of the C5a receptor, and the C5a receptor activates macrophages and induces cell migration.

[6] = target: T5, PI3K γ (Homo sapiens, UniProt P48736); assay: PI3-Kinase Promega ADP-Glo Max assay; assay type: biochemical; conditions: 40 nM kinase, 3 mM ATP, 500 uM diC8-PtdInsP
T5 construct: purchased Millipore
In short: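 Human class I PI3K reactions ran 2 hours at room temperature, followed by stop solution (40 min) and detection mix (1 hour) before luminescence reading.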

T1 sequence (P42336 whole entry): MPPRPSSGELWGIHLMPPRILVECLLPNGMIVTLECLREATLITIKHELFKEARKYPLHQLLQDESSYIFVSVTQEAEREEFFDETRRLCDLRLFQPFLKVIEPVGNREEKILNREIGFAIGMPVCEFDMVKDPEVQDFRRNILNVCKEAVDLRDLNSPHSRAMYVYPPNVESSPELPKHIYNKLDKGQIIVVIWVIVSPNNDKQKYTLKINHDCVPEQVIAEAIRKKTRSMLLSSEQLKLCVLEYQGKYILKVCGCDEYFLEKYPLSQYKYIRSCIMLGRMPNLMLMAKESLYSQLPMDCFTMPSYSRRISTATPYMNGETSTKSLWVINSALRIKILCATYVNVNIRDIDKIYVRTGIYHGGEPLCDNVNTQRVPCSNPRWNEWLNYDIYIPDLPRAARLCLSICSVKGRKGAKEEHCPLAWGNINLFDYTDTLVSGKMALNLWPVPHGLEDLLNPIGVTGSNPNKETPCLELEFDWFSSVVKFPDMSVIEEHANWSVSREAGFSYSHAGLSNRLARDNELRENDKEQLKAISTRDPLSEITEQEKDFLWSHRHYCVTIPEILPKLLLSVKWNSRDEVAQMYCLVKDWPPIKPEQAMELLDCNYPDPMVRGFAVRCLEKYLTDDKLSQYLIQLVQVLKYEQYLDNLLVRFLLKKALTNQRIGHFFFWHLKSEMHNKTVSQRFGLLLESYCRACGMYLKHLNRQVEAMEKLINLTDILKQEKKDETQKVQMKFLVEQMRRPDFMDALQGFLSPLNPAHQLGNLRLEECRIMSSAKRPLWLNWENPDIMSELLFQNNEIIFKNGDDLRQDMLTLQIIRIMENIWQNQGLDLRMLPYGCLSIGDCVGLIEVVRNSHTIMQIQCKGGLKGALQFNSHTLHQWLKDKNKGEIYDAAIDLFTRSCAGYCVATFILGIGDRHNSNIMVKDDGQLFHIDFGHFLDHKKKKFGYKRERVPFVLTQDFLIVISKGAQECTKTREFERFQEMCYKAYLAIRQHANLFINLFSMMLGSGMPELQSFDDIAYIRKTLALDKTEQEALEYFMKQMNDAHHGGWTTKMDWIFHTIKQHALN
T1 sequence (P27986 whole entry partner): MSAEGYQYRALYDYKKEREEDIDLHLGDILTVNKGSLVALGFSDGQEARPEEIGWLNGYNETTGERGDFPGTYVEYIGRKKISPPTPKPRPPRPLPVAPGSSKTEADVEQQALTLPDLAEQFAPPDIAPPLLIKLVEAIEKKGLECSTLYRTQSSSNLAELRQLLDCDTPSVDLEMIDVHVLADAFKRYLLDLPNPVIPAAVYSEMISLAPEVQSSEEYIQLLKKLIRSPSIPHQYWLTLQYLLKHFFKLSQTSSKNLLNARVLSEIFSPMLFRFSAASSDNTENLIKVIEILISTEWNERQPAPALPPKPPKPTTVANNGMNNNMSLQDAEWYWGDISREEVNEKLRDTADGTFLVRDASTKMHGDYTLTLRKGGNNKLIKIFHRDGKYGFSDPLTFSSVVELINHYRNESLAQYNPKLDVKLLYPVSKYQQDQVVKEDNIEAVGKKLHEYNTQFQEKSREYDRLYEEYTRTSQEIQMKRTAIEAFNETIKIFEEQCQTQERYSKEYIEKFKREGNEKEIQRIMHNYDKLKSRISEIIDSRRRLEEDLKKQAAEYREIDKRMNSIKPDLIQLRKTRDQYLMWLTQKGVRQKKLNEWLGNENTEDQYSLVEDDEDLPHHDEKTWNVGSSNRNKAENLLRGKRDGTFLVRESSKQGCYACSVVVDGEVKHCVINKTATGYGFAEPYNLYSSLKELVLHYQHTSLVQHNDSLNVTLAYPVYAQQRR
RAJI p110 δ, sequence (O00329 whole entry): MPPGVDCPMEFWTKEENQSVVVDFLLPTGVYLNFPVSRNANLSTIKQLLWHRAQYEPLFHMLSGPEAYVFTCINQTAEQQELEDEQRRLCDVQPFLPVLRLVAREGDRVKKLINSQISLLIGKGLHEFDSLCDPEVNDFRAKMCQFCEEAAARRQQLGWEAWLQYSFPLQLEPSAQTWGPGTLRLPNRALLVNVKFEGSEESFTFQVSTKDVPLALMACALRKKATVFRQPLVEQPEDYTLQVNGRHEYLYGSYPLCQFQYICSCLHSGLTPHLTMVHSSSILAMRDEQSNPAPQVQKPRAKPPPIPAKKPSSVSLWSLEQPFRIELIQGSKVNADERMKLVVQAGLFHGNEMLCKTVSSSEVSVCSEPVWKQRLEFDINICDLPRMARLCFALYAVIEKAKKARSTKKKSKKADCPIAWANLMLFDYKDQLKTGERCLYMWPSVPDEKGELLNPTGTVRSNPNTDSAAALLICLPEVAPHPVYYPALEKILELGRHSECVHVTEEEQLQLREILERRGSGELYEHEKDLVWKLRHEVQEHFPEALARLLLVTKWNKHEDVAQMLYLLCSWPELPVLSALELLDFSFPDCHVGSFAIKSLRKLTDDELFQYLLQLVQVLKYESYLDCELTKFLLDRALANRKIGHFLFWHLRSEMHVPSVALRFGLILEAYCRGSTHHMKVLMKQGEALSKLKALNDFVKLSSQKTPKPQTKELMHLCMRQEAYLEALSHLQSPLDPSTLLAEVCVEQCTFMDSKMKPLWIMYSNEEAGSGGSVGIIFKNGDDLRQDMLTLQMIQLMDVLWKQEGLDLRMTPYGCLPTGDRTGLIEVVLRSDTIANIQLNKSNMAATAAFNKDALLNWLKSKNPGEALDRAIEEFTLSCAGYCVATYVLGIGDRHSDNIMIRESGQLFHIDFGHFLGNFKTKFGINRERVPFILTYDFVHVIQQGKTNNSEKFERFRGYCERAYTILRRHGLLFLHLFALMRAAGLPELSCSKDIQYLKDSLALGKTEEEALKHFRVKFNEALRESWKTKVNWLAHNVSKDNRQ
RAJI p110 δ, sequence (P27986 whole entry partner): as the sequence (P27986 whole entry partner) above
T2 sequence (O00329 whole entry): as the sequence (O00329 whole entry) above
T2 sequence (P27986 whole entry partner): as the sequence (P27986 whole entry partner) above
T4 sequence (Q9JHG7 whole entry): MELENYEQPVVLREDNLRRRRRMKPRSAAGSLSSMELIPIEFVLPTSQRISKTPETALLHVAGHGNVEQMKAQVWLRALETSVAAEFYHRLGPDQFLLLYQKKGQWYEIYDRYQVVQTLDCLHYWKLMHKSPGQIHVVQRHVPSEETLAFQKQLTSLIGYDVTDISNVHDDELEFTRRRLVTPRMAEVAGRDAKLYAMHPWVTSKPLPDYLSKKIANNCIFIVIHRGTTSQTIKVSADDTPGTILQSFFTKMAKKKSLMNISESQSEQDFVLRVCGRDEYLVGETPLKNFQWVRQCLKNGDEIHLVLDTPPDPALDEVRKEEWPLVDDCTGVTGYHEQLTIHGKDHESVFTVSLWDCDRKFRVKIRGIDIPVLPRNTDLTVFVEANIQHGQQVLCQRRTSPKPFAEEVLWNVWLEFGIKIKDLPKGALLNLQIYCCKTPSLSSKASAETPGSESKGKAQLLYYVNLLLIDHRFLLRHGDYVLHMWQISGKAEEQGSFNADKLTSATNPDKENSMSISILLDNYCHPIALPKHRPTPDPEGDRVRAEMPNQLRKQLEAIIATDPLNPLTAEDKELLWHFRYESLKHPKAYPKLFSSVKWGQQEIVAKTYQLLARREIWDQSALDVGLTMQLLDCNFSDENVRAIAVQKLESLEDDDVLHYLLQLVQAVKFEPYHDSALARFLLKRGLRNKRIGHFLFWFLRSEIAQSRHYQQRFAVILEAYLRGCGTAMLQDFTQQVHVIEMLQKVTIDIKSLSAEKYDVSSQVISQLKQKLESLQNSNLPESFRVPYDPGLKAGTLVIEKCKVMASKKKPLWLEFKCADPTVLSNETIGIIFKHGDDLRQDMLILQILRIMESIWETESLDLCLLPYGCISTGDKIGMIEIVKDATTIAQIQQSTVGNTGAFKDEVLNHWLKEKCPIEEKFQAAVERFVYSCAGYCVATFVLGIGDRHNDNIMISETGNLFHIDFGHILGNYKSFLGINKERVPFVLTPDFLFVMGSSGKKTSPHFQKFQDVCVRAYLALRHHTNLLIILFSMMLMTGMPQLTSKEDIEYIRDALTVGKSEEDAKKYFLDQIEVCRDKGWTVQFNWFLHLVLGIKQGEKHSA

C[C@H](NC(=O)c1nc(-c2ccc(S(C)(=O)=O)cc2)cnc1N)c1cc2cccc(Cl)c2c(=O)n1-c1ccccc1 [Compound 90]
IC50 [1]: 1000 to 10000 nM | IC50 [2]: > 10000 nM | IC50 [3]: > 10000 nM | IC50 [4]: > 10000 nM | IC50 [5]: 100 to 1000 nM | IC50 [6]: 1000 to 10000 nM

COc1cc(-c2cccc3cc([C@H](C)NC(=O)c4ncc(C)nc4N)n(-c4ccccc4)c(=O)c23)ccn1 [Compound 139]
IC50 [1]: 100 to 1000 nM | IC50 [2]: > 10000 nM | IC50 [3]: 1000 to 10000 nM | IC50 [4]: > 10000 nM | IC50 [5]: < 100 nM | IC50 [6]: 1000 to 10000 nM

C[C@H](NC(=O)c1c(N)nn2cccnc12)c1cc2cccc(Cl)c2c(=O)n1CCN(C)S(C)(=O)=O [Compound 273]
IC50 [1]: < 100 nM | IC50 [2]: 100 to 1000 nM | IC50 [3]: 100 to 1000 nM | IC50 [4]: 100 to 1000 nM | IC50 [5]: < 100 nM | IC50 [6]: < 100 nM

C[C@H](NC(=O)c1c(N)nn2cccnc12)c1cc2cccc(Cl)c2c(=O)n1-c1ccc(F)cc1 [Compound 72]
IC50 [1]: < 100 nM | IC50 [2]: 1000 to 10000 nM | IC50 [3]: 1000 to 10000 nM | IC50 [4]: 100 to 1000 nM | IC50 [5]: < 100 nM | IC50 [6]: < 100 nM

C[C@H](NC(=O)c1c(N)nn2cccnc12)c1cc2cccc(NCC(F)(F)F)c2c(=O)n1-c1ccccc1 [Compound 267]
IC50 [1]: 100 to 1000 nM | IC50 [2]: > 10000 nM | IC50 [3]: > 10000 nM | IC50 [4]: > 10000 nM | IC50 [5]: 100 to 1000 nM | IC50 [6]: 1000 to 10000 nM

Cc1cnc(N)c(C(=O)N[C@@H](C)c2cc3cccc(Cl)c3c(=O)n2-c2ccccc2)n1 [Compound 89]
IC50 [1]: 100 to 1000 nM | IC50 [2]: > 10000 nM | IC50 [3]: 1000 to 10000 nM | IC50 [4]: 1000 to 10000 nM | IC50 [5]: 100 to 1000 nM | IC50 [6]: 1000 to 10000 nM

C[C@H](NC(=O)c1c(N)nn2cccnc12)c1cc2cccc(-c3ccn[nH]3)c2c(=O)n1-c1ccccc1 [Compound 221]
IC50 [1]: 100 to 1000 nM | IC50 [2]: 1000 to 10000 nM | IC50 [3]: 1000 to 10000 nM | IC50 [4]: > 10000 nM | IC50 [5]: < 100 nM | IC50 [6]: 100 to 1000 nM

COc1cc(-c2cccc3cc([C@H](C)NC(=O)c4c(N)nn5cccnc45)n(-c4cccc(F)c4)c(=O)c23)ccn1 [Compound 189]
IC50 [1]: 100 to 1000 nM | IC50 [2]: 1000 to 10000 nM | IC50 [3]: 1000 to 10000 nM | IC50 [4]: > 10000 nM | IC50 [5]: < 100 nM | IC50 [6]: 100 to 1000 nM

C[C@H](NC(=O)c1c(N)nn2cccnc12)c1cc2cccc(C#CCN)c2c(=O)n1-c1ccccc1 [Compound 153]
IC50 [1]: 100 to 1000 nM | IC50 [2]: 1000 to 10000 nM | IC50 [3]: 1000 to 10000 nM | IC50 [4]: 1000 to 10000 nM | IC50 [5]: 100 to 1000 nM | IC50 [6]: 100 to 1000 nM

C[C@H](NC(=O)c1c(N)nn2cccnc12)c1cc2cccc(C#CCNC(=O)[C@@H]3CCC(=O)O3)c2c(=O)n1-c1ccccc1 [Compound 157]
IC50 [1]: < 100 nM | IC50 [2]: 100 to 1000 nM | IC50 [3]: 100 to 1000 nM | IC50 [4]: 100 to 1000 nM | IC50 [5]: < 100 nM | IC50 [6]: < 100 nM

C=CC(=O)NCCC#Cc1cccc2cc([C@H](C)NC(=O)c3c(N)nn4cccnc34)n(-c3ccccc3)c(=O)c12 [Compound 160]
IC50 [1]: < 100 nM | IC50 [2]: 1000 to 10000 nM | IC50 [3]: 1000 to 10000 nM | IC50 [4]: 1000 to 10000 nM | IC50 [5]: < 100 nM | IC50 [6]: 100 to 1000 nM

C[C@H](NC(=O)c1c(N)nn2cccnc12)c1cc2cccc(C#CCNC(=O)c3ccc(C#N)o3)c2c(=O)n1-c1ccccc1 [Compound 164]
IC50 [1]: < 100 nM | IC50 [2]: 100 to 1000 nM | IC50 [3]: 1000 to 10000 nM | IC50 [4]: 1000 to 10000 nM | IC50 [5]: < 100 nM | IC50 [6]: 100 to 1000 nM

COc1cc(-c2cccc3cc([C@H](C)NC(=O)c4c(N)nn5cccnc45)n(C4CC4)c(=O)c23)ccn1 [Compound 150]
IC50 [1]: 100 to 1000 nM | IC50 [2]: 1000 to 10000 nM | IC50 [3]: 1000 to 10000 nM | IC50 [4]: 1000 to 10000 nM | IC50 [5]: < 100 nM | IC50 [6]: 1000 to 10000 nM

C[C@H](NC(=O)c1nccnc1N)c1cc2cccc(Cl)c2c(=O)n1-c1ccccc1 [Compound 4, (S)-3-amino-N-(1-(8-chloro-1-oxo-2-phenyl-1,2-dihydroisoquinolin-3-yl)ethyl)pyrazine-2-carboxamide]
IC50 [1]: < 100 nM | IC50 [2]: 1000 to 10000 nM | IC50 [3]: < 100 nM | IC50 [4]: 100 to 1000 nM | IC50 [5]: < 100 nM | IC50 [6]: 100 to 1000 nM

CC(C)NS(=O)(=O)c1cccc(-c2cnc(N)c(C(=O)N[C@@H](C)c3cc4cccc(Cl)c4c(=O)n3-c3ccccc3)n2)c1 [Compound 97]
IC50 [1]: < 100 nM | IC50 [2]: 1000 to 10000 nM | IC50 [3]: 1000 to 10000 nM | IC50 [4]: 100 to 1000 nM | IC50 [5]: < 100 nM | IC50 [6]: 100 to 1000 nM

C[C@H](NC(=O)c1nc(-c2cn[nH]c2)cnc1N)c1cc2cccc(Cl)c2c(=O)n1-c1ccccc1 [Compound 110]
IC50 [1]: < 100 nM | IC50 [2]: 1000 to 10000 nM | IC50 [3]: 1000 to 10000 nM | IC50 [4]: 1000 to 10000 nM | IC50 [5]: < 100 nM | IC50 [6]: 100 to 1000 nM

C[C@H](NC(=O)c1nc(-c2cccc(NS(=O)(=O)C3CC3)c2)cnc1N)c1cc2cccc(Cl)c2c(=O)n1-c1ccccc1 [Compound 102]
IC50 [1]: < 100 nM | IC50 [2]: 1000 to 10000 nM | IC50 [3]: 1000 to 10000 nM | IC50 [4]: 100 to 1000 nM | IC50 [5]: < 100 nM | IC50 [6]: < 100 nM

C[C@H](NC(=O)c1cnn2cccnc12)c1cc2cccc(Cl)c2c(=O)n1-c1ccccc1 [Compound 22]
IC50 [1]: 100 to 1000 nM | IC50 [2]: > 10000 nM | IC50 [3]: 1000 to 10000 nM | IC50 [4]: 1000 to 10000 nM | IC50 [5]: 100 to 1000 nM | IC50 [6]: 1000 to 10000 nM

COc1cc(-c2cccc3cc([C@H](C)NC(=O)c4c(N)nn5ccc(C)nc45)n(-c4ccccc4)c(=O)c23)ccn1 [Compound 186]
IC50 [1]: < 100 nM | IC50 [2]: 1000 to 10000 nM | IC50 [3]: 1000 to 10000 nM | IC50 [4]: > 10000 nM | IC50 [5]: < 100 nM | IC50 [6]: 100 to 1000 nM

C[C@H](NC(=O)c1c(N)ncc2cccnc12)c1cc2cccc(Cl)c2c(=O)n1-c1ccccc1 [Compound 137]
IC50 [1]: < 100 nM | IC50 [2]: 1000 to 10000 nM | IC50 [3]: 100 to 1000 nM | IC50 [4]: 100 to 1000 nM | IC50 [5]: < 100 nM | IC50 [6]: 100 to 1000 nM

Cc1c([C@H](C)NC(=O)c2c(N)nn3cccnc23)n(-c2ccccc2)c(=O)c2c(F)cccc12 [Compound 260]
IC50 [1]: < 100 nM | IC50 [2]: 1000 to 10000 nM | IC50 [3]: 100 to 1000 nM | IC50 [4]: 100 to 1000 nM | IC50 [5]: < 100 nM | IC50 [6]: < 100 nM

C[C@H](NC(=O)c1c(N)nn2cccnc12)c1cc2scc(Cl)c2c(=O)n1-c1ccccc1 [Compound 212]
IC50 [1]: < 100 nM | IC50 [2]: 1000 to 10000 nM | IC50 [3]: 100 to 1000 nM | IC50 [4]: 100 to 1000 nM | IC50 [5]: < 100 nM | IC50 [6]: < 100 nM

COc1cncc(-c2cccc3cc([C@H](C)NC(=O)c4c(N)nn5cccnc45)n(-c4ccccc4)c(=O)c23)c1 [Compound 119]
IC50 [1]: < 100 nM | IC50 [2]: 1000 to 10000 nM | IC50 [3]: 100 to 1000 nM | IC50 [4]: > 10000 nM | IC50 [5]: < 100 nM | IC50 [6]: < 100 nM

Cc1ccn2nc(N)c(C(=O)N[C@@H](C)c3cc4cccc(Cl)c4c(=O)n3-c3ccccc3)c2n1 [Compound 142]
IC50 [1]: < 100 nM | IC50 [2]: 1000 to 10000 nM | IC50 [3]: 100 to 1000 nM | IC50 [4]: < 100 nM | IC50 [5]: < 100 nM | IC50 [6]: 100 to 1000 nM
